The values that follow are results of earlier work, collected in patent publication US6723506B2, “Method of identifying PAX8-PPAR gamma-nucleic acid molecules” (Brigham and Women's Hospital, priority 2000, dated 2004).

The structures appear in SMILES notation.

In this data set the test system is PML-RAR (retinoic acid receptor α) translocation. The settings on record: patients harboring the PML-RAR translocation.

In the case of `CC1=C(/C=C/C(C)=C/C=C/C(C)=C/C(=O)O)C(C)(C)CCC1` [all-trans retinoic acid], the “remission in APML patients” value was “induces remission in nearly every patient”.
